pIC50: −log10 of the molar value.

One may read the pIC50 as −log10 of the IC50, conventionally taken in molar units.

For the test, the system named is IL-2 production. The test can be described thus: Inhibition of IL-2 production in PHA-activated Jurkat cells (ELISA). The test is classed as cell-based, human. As to conditions: Homo sapiens, Jurkat, 20 h, Jurkat cells, PHA 2.5 μg/mL, 20 hours, IL-2 ELISA; read-out: IC50 (inhibition of IL-2 production). As to the method: Jurkat cells were placed in a 96 well plate (0.5 million cells per well in 1% FBS medium) then a test compound of this invention was added at different concentrations. After 10 minutes, the cells were activated with PHA (final concentration 2.5 μg/mL) and incubated for 20 hours at 37° C. under CO2. The final volume was 200 μL. Following incubation, the cells were centrifuged and the supernatants collected and stored at −70° C. prior to assaying for IL-2 production. A commercial ELISA kit (IL-2 Eli-pair, Diaclone Research, Besancon, France) was used to detect production of IL-2, from which dose response curves were obtained. The IC50 value was calculated as the concentration at which 50% of maximum IL-2 production after stimulation was inhibited versus a non-stimulation control.
For orientation: ELISA stands for enzyme-linked immunosorbent assay.
For the compound `COc1ccc(-c2cnco2)cc1-c1ccc(NC(=O)c2snnc2C)cc1` [Compound 25, 4-Methyl-[1,2,3]thiadiazole-5-carboxylic acid [2′-methoxy-5′-(oxazol-5-yl)-biphenyl-4-yl]-amide], the pIC50 is 8.52.

Turning to `Cc1ccc(-c2nc(C(F)(F)F)cs2)cc1-c1ccc(NC(=O)c2c(F)cccc2F)cc1` [Compound 39], the pIC50 is 7.89.

Turning to `O=C(Nc1ccc(-c2cc(-c3ncco3)ccc2Cl)cc1)c1c(F)cccc1F` [Compound 31], the negative logarithm of the IC50 (pIC50) was 8.22.

Take `O=C(Nc1ccc(-c2cc(-c3nccs3)ccc2Cl)cc1)c1c(F)cncc1F` [Compound 57, 3,5-Difluoro-N-[5′-(thiazol-2-yl)-2′-chloro-biphenyl-4-yl]-isonicotinamide]: the negative logarithm of the IC50 (pIC50) was 8.52.

With `Cc1ccc(-c2cocn2)cc1-c1ccc(NC(=O)c2ccncc2F)cc1` [Compound 78, 3-Fluoro-N-[2′-methyl-5′-(oxazol-4-yl)-biphenyl-4-yl]-isonicotinamide], the pIC50 was 8.05.

For `CSc1nnc(-c2ccc(C)c(-c3ccc(NC(=O)c4ccncc4F)cc3)c2)n1C` [Compound 73, 3-Fluoro-N-[2′-methyl-5′-(4-methyl-5-methylsulfanyl-4H-[1,2,4]triazol-3-yl)-biphenyl-4-yl]-isonicotinamide], the negative-log IC50 (pIC50) is under 6.00.

For the compound `Cc1cc(-c2ccc(C)c(-c3ccc(NC(=O)c4c(F)cccc4F)cc3)c2)on1` [Compound 35, 2,6-Difluoro-N-[2′-methyl-5′-(3-methyl-isoxazole-5-yl)-biphenyl-4-yl]-benzamide], the pIC50 is 8.70.

As to `COc1ccc(-c2ccco2)cc1-c1ccc(NC(=O)c2ccncc2C)cc1` [Compound 47, 3-Methyl-N-[2′-methoxy-5′-(furan-2-yl)-biphenyl-4-yl]-isonicotinamide], the pIC50 was 7.23.

As for `Cc1ccc(-c2ccc[nH]2)cc1-c1ccc(NC(=O)c2c(F)cccc2F)cc1` [Compound 41, 2,6-Difluoro-N-[2′-methyl-5′-(1H-pyrrol-2-yl)-biphenyl-4-yl]-benzamide], the pIC50 was 7.74.

Turning to `COc1ccc(-c2ncco2)cc1-c1ccc(NC(=O)c2ccncc2C)cc1` [Compound 50, 3-Methyl-N-[5′-(oxazol-2-yl)-2′-methoxy-biphenyl-4-yl]-isonicotinamide], the pIC50 was 7.64.

With `Cc1ccc(-c2ncco2)cc1-c1ccc(NC(=O)c2c(F)cncc2F)cc1` [Compound 11, 3,5-Difluoro-N-(2′-methyl-5′-oxazol-2-yl-biphenyl-4-yl)-isonicotinamide], the negative logarithm of the IC50 (pIC50) is 8.52.

For the compound `COc1ccc(-c2cnco2)cc1-c1ccc(NC(=O)c2c(F)cccc2F)cc1` [Compound 27], the negative-log IC50 (pIC50) is 8.40.

For `CSc1nnc(-c2ccc(C)c(-c3ccc(NC(=O)c4ccncc4C)cc3)c2)n1C` [Compound 74, 3-Methyl-N-[2′-methyl-5′-(4-methyl-5-methylsulfanyl-4H-[1,2,4]triazol-3-yl)-biphenyl-4-yl]-isonicotinamide], the pIC50 was under 6.00.

Take `Cc1cnccc1C(=O)Nc1ccc(-c2cc(-c3nccs3)ccc2Cl)cc1` [Compound 55, 3-Methyl-N-[5′-(thiazol-2-yl)-2′-chloro-biphenyl-4-yl]-isonicotinamide]: the pIC50 is 8.22.

As to `Cc1cnccc1C(=O)Nc1ccc(-c2cc(-c3nnnn3C)ccc2C)cc1` [Compound 49, 3-Methyl-N-[2′-methyl-5′-(1-methyl-1H-tetrazol-5-yl)-biphenyl-4-yl]-isonicotinamide], the negative-log IC50 (pIC50) is 7.92.

As to `COc1ncc(Cl)cc1-c1ccc(NC(=O)c2ccncc2F)cc1` [Compound 19, 3-Fluoro-N-[4-(5-chloro-2-methoxy-pyridin-3-yl)-phenyl]-isonicotinamide], the negative logarithm of the IC50 (pIC50) is 7.72.

On to `Cc1ccc(-c2nnco2)cc1-c1ccc(NC(=O)c2c(F)cncc2F)cc1` [Compound 68, 3,5-Difluoro-N-[2′-methyl-5′-([1,3,4]oxadiazol-2-yl)-biphenyl-4-yl]-isonicotinamide], for which the pIC50 was 8.52.

For the origin of these results see patent US8592486B2, “Compounds for inflammation and immune-related uses” (Synta Pharmaceuticals Corp., priority 2005, dated 2013).
